Laboratory results from ChEMBL document CHEMBL4316587, “Identification of 3-(benzazol-2-yl)quinoxaline derivatives as potent anticancer compounds: Privileged structure-based design, synthesis, and bioactive evaluation in vitro and in vivo” (Eur J Med Chem, 2019).
Activity calls are given as the source filed them. No cut-off for these calls is given here.

Tests used:
[1] = tested on: MGC-803; assay: Antiproliferative activity against human MGC803 cells after 48 hrs by MTT assay; format: functional, cell-based; details: MGC-803, 48 h
[2] = tested on: HepG2; assay: Antiproliferative activity against human HepG2 cells after 48 hrs by MTT assay; format: functional, cell-based; details: HepG2, 48 h
[3] = tested on: HeLa; assay: cells; details: Homo sapiens, 48 h
[4] = tested on: WI-38; assay: Antiproliferative activity against human WI38 cells after 48 hrs by MTT assay; format: cell-based; details: WI-38, 48 h
[5] = tested on: T-24; assay: Antiproliferative activity against human T24 cells after 48 hrs by MTT assay; format: functional, cell-based; details: T-24, 48 h
[6] = tested on: A549; assay: cells; details: Homo sapiens, A549, 48 h
[7] = target: T1, DNA topoisomerase 1 (Homo sapiens) (UniProt P11387); assay: Inhibition of topoisomerase 1 (unknown origin) using pBR322 DNA as substrate assessed as reduction in pBR322 DNA unwinding at 50 uM after 30 mins by ethidium bromide staining-based agarose gel electrophoresis analysis
T1 sequence (whole entry): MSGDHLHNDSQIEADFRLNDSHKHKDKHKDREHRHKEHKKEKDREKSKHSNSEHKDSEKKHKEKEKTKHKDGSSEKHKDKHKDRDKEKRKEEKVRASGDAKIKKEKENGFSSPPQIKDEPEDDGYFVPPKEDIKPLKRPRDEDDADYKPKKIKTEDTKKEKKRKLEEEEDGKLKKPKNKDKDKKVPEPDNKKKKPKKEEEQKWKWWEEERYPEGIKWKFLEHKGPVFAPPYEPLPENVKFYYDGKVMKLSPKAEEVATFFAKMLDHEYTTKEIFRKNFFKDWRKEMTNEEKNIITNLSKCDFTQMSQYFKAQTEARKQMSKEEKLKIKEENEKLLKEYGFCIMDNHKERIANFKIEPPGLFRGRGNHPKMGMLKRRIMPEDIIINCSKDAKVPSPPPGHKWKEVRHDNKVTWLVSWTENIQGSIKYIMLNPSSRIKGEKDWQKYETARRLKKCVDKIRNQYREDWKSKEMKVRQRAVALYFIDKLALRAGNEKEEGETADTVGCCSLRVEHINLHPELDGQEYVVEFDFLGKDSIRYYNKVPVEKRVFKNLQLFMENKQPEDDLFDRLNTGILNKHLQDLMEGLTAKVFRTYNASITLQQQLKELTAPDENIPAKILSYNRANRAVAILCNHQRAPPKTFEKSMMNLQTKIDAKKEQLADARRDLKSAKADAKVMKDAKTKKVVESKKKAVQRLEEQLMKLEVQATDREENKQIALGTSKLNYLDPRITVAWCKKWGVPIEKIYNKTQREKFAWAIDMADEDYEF

[8] = tested on: DNA; assay: Binding affinity to Escherichia coli supercoiled pBR322 DNA assessed as DNA intercalation at 50 uM after 1 hr by ethidium bromide staining-based agarose gel electrophoresis analysis; format: nucleic-acid assay
[9] = target: T1, DNA topoisomerase 1 (Homo sapiens); assay: Inhibition of topoisomerase 1 (unknown origin) at 50 uM using pBR322 DNA as substrate preincubated for 30 mins followed by substrate addition and measured after 30 mins by ethidium bromide staining-based agarose gel electrophoresis analysis
[10] = tested on: MGC-803; assay: Antitumor activity against human MGC803 cells xenografted in BALB/C mouse assessed as tumor growth inhibition at 6 mg/kg, ip dosed every other day for 16 days relative to control; format: functional; details: MGC-803, ip, read-out: TGI

Structure (SMILES) | IC50 [1] [µM] | IC50 [2] [µM] | IC50 [3] [µM] | IC50 [4] [µM] | IC50 [5] [µM] | IC50 [6] [µM] | inhibition [7] | Activity [8] | inhibition [9] | inhibition in vivo at 6 mg/kg [10] [%]
c1ccc2nc(-c3nc4ccccc4o3)c(NCCCN3CCOCC3)nc2c1 | > 100 | > 100 | > 100 | > 100 | > 100 | > 100 | – | – | – | –
c1ccc2nc(-c3nc4ccccc4s3)c(NCCN3CCOCC3)nc2c1 | > 100 | > 100 | > 100 | > 100 | > 100 | > 100 | – | – | – | –
c1ccc2nc(-c3nc4ccccc4[nH]3)c(NCCN3CCOCC3)nc2c1 | > 100 | > 100 | > 100 | > 100 | > 100 | > 100 | – | – | – | –
c1ccc2nc(-c3nc4ccccc4o3)c(NCCN3CCOCC3)nc2c1 | > 100 | > 100 | > 100 | > 100 | > 100 | > 100 | – | – | – | –
c1ccc2nc(-c3nc4ccccc4s3)c(NCCCN3CCOCC3)nc2c1 | > 100 | > 100 | > 100 | > 100 | > 100 | > 100 | – | – | – | –
CCN(CC)CCCNc1nc2ccccc2nc1-c1nc2c(ccc3ccccc32)o1 | 11.5 | 12.7 | 10.8 | 14.7 | 8 | 11.3 | inactive | inactive | inactive | –
CC[C@@]1(O)C(=O)OCc2c1cc1n(c2=O)Cc2cc3ccccc3nc2-1 [CAMPTOTHECIN] | 2.96 | 4.79 | 6.51 | 8.37 | 6.8 | 4.43 | – | – | – | 51.5
c1ccc2nc(-c3nc4ccccc4[nH]3)c(NCCCN3CCOCC3)nc2c1 | > 100 | > 100 | > 100 | > 100 | > 100 | > 100 | – | – | – | –
CN(C)CCCNc1nc2ccccc2nc1-c1nc2c(ccc3ccccc32)o1 | 11.3 | 10.8 | 10.5 | 16.4 | 5.75 | 4.66 | inactive | inactive | inactive | –
